According to patent US10604509B2, “Nrf2 regulators” (GlaxoSmithKline Intellectual Property Development Limited, priority 2015, dated 2020):
Counter-ions that a name gives are not always drawn.

Tested on: NQO1 specific enzyme activity in BEAS-2B cells
Test: BEAS-2B NQO1 MTT assay
Format: cell-based
Conditions: Homo sapiens, BEAS-2B, 48 h, BEAS-2B cells, 48 hours with compound, MTT readout; read-out: EC50 of NQO1 specific activity induction
How it was run: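 BEAS-2B cells treated with compound 48 h at 37° C, 5% CO2, then lysed; NQO1 activity in lysate measured kinetically by MTT cocktail at Absorbance 570 nm over 30 min. EC50 for induction from Delta OD/min versus log concentration, 3-parameter fit; Cell Titer Glo run on lysate aliquot.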

SMILES	EC50 [µM]
Cc1ccc(C(CC(=O)O)c2ccc3c(nnn3C)c2C)cc1CN1Cc2ccccc2OC2(CCC2)C1 (centres unmarked) [Example 244, 3-(3-((3H-Spiro[benzo[f][1,4]oxazepine-2,1′-cyclobutan]-4(5H)-yl)methyl)-4-methylphenyl)-3-(1,4-dimethyl-1H-benzo[d][1,2,3]triazol-5-yl)propanoic Acid]	0.01 to 0.1
CC[C@@H]1CN(Cc2cc(C(CC(=O)O)c3ccc4c(nnn4C)c3C)ccc2C)Cc2cnccc2O1 (stereo partly drawn) [Example 86, 3-(1,4-Dimethyl-1H-benzo[d][1,2,3]triazol-5-yl)-3-(3-(((R)-2-ethyl-2,3-dihydropyrido[3,4-f][1,4]oxazepin-4(5H)-yl)methyl)-4-methylphenyl)propanoic acid]	0.1 to 1
Cc1ccc(C(c2ccc3c(nnn3C)c2C)C(C)(C)C(=O)O)cc1CN1Cc2ccccc2OC(C)(C)C1 (centres unmarked) [Example 8, 3-(1,4-Dimethyl-1H-benzo[d][1,2,3]triazol-5-yl)-3-(3-((2,2-dimethyl-2,3-dihydrobenzo[f][1,4]oxazepin-4(5H)-yl)methyl)-4-methylphenyl)-2,2-dimethylpropanoic Acid, Formic Acid Salt]	0.001 to 0.01
CCn1nnc2c(F)c([C@H](c3ccc(C)c(CN4Cc5ncccc5OC(C)(C)C4)c3)[C@@H](C)C(=O)O)ccc21 [Example 190, (2R,3S)-3-(3-((2,2-Dimethyl-2,3-dihydropyrido[2,3-f][1,4]oxazepin-4(5H)-yl)methyl)-4-methylphenyl)-3-(1-ethyl-4-fluoro-1H-benzo[d][1,2,3]triazol-5-yl)-2-methylpropanoic Acid]	0.001 to 0.01
CC[C@@H]1CN(Cc2cc(C(CC(=O)O)c3ccc4c(nnn4C)c3C)ccc2C)Cc2cccc(F)c2O1 (stereo partly drawn) [Example 80, 3-(1,4-Diemthyl-1H-benzo[d][1,2,3]triazol-5-yl)-3-(3-(((R)-2-ethyl-9-fluoro-2,3-dihydrobenzo[f][1,4]oxazepin-4(5H)-yl)methyl)-4-methylphenyl)propanoic acid, formic acid salt]	0.01 to 0.1
CCC1CN(Cc2cc(C(CCc3cn(CC)nn3)CC(=O)O)ccc2C)Cc2ccccc2O1 (centres unmarked) [Example 4, 5-(1-Ethyl-1H-1,2,3-triazol-4-yl)-3-(3-((2-ethyl-2,3-dihydrobenzo[f][1,4]oxazepin-4(5H)-yl)methyl)-4-methylphenyl)pentanoic Acid, Trifluoroacetic Acid Salt]	1 to 10
CC[C@@H]1CN(Cc2cc([C@@H](c3ccc4c(nnn4C)c3C)C(C)(C)C(=O)O)ccc2C)Cc2ccccc2O1 [Example 26, (S)-3-(1,4-Dimethyl-1H-benzo[d][1,2,3]triazol-5-yl)-3-(3-(((R)-2-ethyl-2,3-dihydrobenzo[f][1,4]oxa-zepin-4(5H)-yl)methyl)-4-methylphenyl)-2,2-dimethylpropanoic acid, trifluoroacetic acid salt]	0.001 to 0.01
CC[C@@H]1CN(Cc2cc(C(CC(=O)O)c3ccc4c(nnn4C)c3C)ccc2C)Cc2cc(C)ccc2O1 (stereo partly drawn) [Example 81, Ammonium 3-(1,4-dimethyl-1H-benzo[d][1,2,3]triazol-5-yl)-3-(3-(((R)-2-ethyl-7-methyl-2,3-dihydrobenzo[f][1,4]oxazepin-4(5H)-yl)methyl)-4-methylphenyl)propanate]	0.01 to 0.1
CCC1c2cccn2CCN1Cc1cc(C(CC(=O)O)c2ccc3c(nnn3C)c2C)ccc1C (centres unmarked) [Example 19, 3-(1,4-dimethyl-1H-benzo[d][1,2,3]triazol-5-yl)-3-(3-((1-ethyl-3,4-dihdyropyrrolo[1,2-a]pyrazin-2(1H)-yl)methyl)-4-methylphenyl)propanoic acid, formic acid salt]	1 to 10
COc1ccc2c(c1)OC(C)(C)CN(Cc1cc([C@H](CC(=O)O)c3ccc4c(nnn4C)c3C)ccc1C)C2 [Example 168, (S)-3-(1,4-Dimethyl-1H-benzo[d][1,2,3]triazol-5-yl)-3-(3-((8-methoxy-2,2-dimethyl-2,3-dihydrobenzo[f][1,4]oxazepin-4(5H)-yl)methyl)-4-methylphenyl)propanoic acid]	0.01 to 0.1
Cc1ccc([C@H](CC(=O)O)c2ccc3c(nnn3C)c2C)cc1CN1CCCC(Cn2cccn2)C1 (stereo partly drawn) [Example 215, (3S)-3-(3-((3-((1H-Pyrazol-1-yl)methyl)piperidin-1-yl)methyl)-4-methylphenyl)-3-(1,4-dimethyl-1H-benzo[d][1,2,3]triazol-5-yl)propanoic Acid]	1 to 10
Cc1ccc(C(CC(=O)O)c2ccc3c(nnn3C)c2C)cc1Cn1ccnc1C(C)C1CCCCC1 (centres unmarked) [Example 133, Ammonium 3-(3-((2-(1-cyclohexylethyl)-1H-imidazol-1-yl)methyl)-4-methylphenyl)-3-(1,4-dimethyl-1H-benzo[d][1,2,3]triazol-5-yl)propanoate]	0.1 to 1
Cc1ccc([C@@H](c2ccc3c(nnn3C)c2C)C(C)(C)C(=O)O)cc1CN1CCC[C@H](n2cccn2)C1 [Example 183, (S)-3-(3-(((S)-3-(1H-Pyrazol-1-yl)piperidin-1-yl)methyl)-4-methylphenyl)-3-(1,4-dimethyl-1H-benzo[d][1,2,3]triazol-5-yl)-2,2-dimethylpropanoic Acid]	0.01 to 0.1
CCc1nc(C2CCCCN2Cc2cc(C(CC(=O)O)c3ccc4c(nnn4C)c3C)ccc2C)no1 (centres unmarked) [Example 12, Ammonium 3-(1,4-dimethyl-1H-benzo[d][1,2,3]triazol-5-yl)-3-(3-((2-(5-ethyl-1,2,4-oxadiazol-3-yl)piperidin-1-yl)methyl)-4-methylphenyl)propanoate]	0.1 to 1
CCn1nnc2c(C)c(C(CC(=O)O)c3ccc(C)c(CN4Cc5ccccc5O[C@@H](C)C4)c3)ccc21 (stereo partly drawn) [Example 97, 3-(1-Ethyl-4-methyl-1H-benzo[d][1,2,3]triazol-5-yl)-3-(4-methyl-3-(((S)-2-methyl-2,3-dihydrobenzo[f][1,4]oxazepin-4(5H)-yl)methyl)phenyl)propanoic Acid, Formic Acid Salt]	0.1 to 1
COc1ccc(CN(Cc2cc(C(CC(=O)O)c3ccc4c(nnn4C)c3C)ccc2C)C2CC2)cc1 (centres unmarked) [Example 20, 3-(3-((cyclopropyl(4-methoxybenzyl)amino)meth-yl)-4-methylphenyl)-3-(1,4-dimethyl-1H-benzo[d][1,2,3]triazol-5-yl)propanoic acid, formic acid salt]	0.1 to 1
CC[C@@H]1CN(Cc2cc([C@H](CC(=O)O)c3ccc4c(nnn4C)c3C)ccc2C)Cc2ccccc2O1 [Example 49, (S)-3-(1,4-Dimethyl-1H-benzo[d][1,2,3]triazol-5-yl)-3-(3-(((R)-2-ethyl-2,3-dihydrobenzo[f][1,4]oxazepin-4(5H)-yl)methyl)-4-methylphenyl)propanoic Acid, Formic Acid Salt]	0.1 to 1
Cc1ccc([C@@H](CC(=O)O)c2ccc3c(nnn3C)c2C)cc1CN1Cc2ncccc2OC(C)(C)C1 [Example 169, (R)-3-(1,4-Dimethyl-1H-benzo[d][1,2,3]triazol-5-yl)-3-(3-((2,2-dimethyl-2,3-dihydropyrido[2,3-f][1,4]oxazepin-4(5H)-yl)methyl)-4-methylphenyl)propanoic acid, 0.5 Formic acid salt]	0.01 to 0.1
Cc1ccc(C(c2ccc3c(nnn3C)c2C)C(C)(C)C(=O)O)cc1Cn1ccnc1CN1C2CCCC1CC2 (centres unmarked) [Example 156, 3-(3-((2-(8-Azabicyclo[3.2.1]octan-8-ylmethyl)-1H-imidazol-1-yl)methyl)-4-methylphenyl)-3-(1,4-dimethyl-1H-benzo[d][1,2,3]triazol-5-yl)-2,2-dimethylpropanoic Acid, Trifluoroacetic Acid Salt]	0.01 to 0.1
Cc1ccc(C(CC(=O)O)c2ccc3c(nnn3C)c2C)cc1CN1CCOc2ccc(C#N)cc2C1 (centres unmarked) [Example 14, Ammonium 3-(3-((7-cyano-2,3-dihydrobenzo[f][1,4]oxazepin-4(5H)-yl)methyl)-4-methylphenyl)-3-(1,4-dimethyl-1H-benzo[d][1,2,3]triazol-5-yl)propanoate]	1 to 10
Cc1ccc(C(CC(=O)O)c2ccc3c(nnn3C)c2C)cc1CN1Cc2ccccc2OC(C)C1 (centres unmarked) [Example 3, trifluoroacetic Acid Salt]	1 to 10
Cc1ccc([C@@H](CC(=O)O)c2ccc3c(nnn3C)c2C)cc1CN1Cc2cccc(F)c2OC(C)(C)C1 [Example 177, (R)-3-(1,4-Dimethyl-1H-benzo[d][1,2,3]triazol-5-yl)-3-(3-((9-fluoro-2,2-dimethyl-2,3-dihydrobenzo[f][1,4]oxazepin-4(5H)-yl)methyl)-4-methylphenyl)propanoic acid]	0.01 to 0.1
Cc1ncc(C(c2ccc3c(nnn3C)c2C)C(C)(C)C(=O)O)cc1Cn1ccnc1CC1CCCCCC1 (centres unmarked) [Example 214, 3-(5-((2-(Cycloheptylmethyl)-1H-imidazol-1-yl)methyl)-6-methylpyridin-3-yl)-3-(1,4-dimethyl-1H-benzo[d][1,2,3]triazol-5-yl)-2,2-dimethylpropanoic Acid, Trifluoroacetic Acid Salt]	0.1 to 1
Cc1ccc(C(CC(=O)O)c2ccc3c(nnn3C)c2C)cc1Cn1cnc(CC2CCCCC2)c1 (centres unmarked) [Example 136, 3-(3-((4-(Cyclohexylmethyl)-1H-imidazol-1-yl)methyl)-4-methylphenyl)-3-(1,4-dimethyl-1H-benzo[d][1,2,3]triazol-5-yl)propanoic Acid]	0.01 to 0.1
CC[C@@H]1CN(Cc2cc([C@H](CC(=O)O)c3ccc4c(nnn4CC)c3F)ccc2C)Cc2ccccc2O1 (relative stereo) [compound 182, rel-(S)-3-(3-(((R)-2-Ethyl-2,3-dihydrobenzo[f][1,4]oxazepin-4(5H)-yl)methyl)-4-methylphenyl)-3-(1-ethyl-4-fluoro-1H-benzo[d][1,2,3]triazol-5-yl)propanoic acid]	0.1 to 1
Cc1ccc(C(CC(=O)O)c2ccc3c(nnn3C)c2C)cc1Cn1ccnc1CN1CCC(F)(F)CC1 (centres unmarked) [Example 149, 3-(3-((2-((4,4-Difluoropiperidin-1-yl)methyl)-1H-imidazol-1-yl)methyl)-4-methylphenyl)-3-(1,4-dimethyl-1H-benzo[d][1,2,3]triazol-5-yl)propanoic acid]	0.1 to 1
